What is called Ki is the dissociation constant of the complex between target and ligand, obtained from inhibition or displacement.

The first test deals with T1, human muscarinic M3 receptor (Homo sapiens, UniProt P20309).
T1 construct: expressed in transfected cells
T1 sequence (P20309 whole entry): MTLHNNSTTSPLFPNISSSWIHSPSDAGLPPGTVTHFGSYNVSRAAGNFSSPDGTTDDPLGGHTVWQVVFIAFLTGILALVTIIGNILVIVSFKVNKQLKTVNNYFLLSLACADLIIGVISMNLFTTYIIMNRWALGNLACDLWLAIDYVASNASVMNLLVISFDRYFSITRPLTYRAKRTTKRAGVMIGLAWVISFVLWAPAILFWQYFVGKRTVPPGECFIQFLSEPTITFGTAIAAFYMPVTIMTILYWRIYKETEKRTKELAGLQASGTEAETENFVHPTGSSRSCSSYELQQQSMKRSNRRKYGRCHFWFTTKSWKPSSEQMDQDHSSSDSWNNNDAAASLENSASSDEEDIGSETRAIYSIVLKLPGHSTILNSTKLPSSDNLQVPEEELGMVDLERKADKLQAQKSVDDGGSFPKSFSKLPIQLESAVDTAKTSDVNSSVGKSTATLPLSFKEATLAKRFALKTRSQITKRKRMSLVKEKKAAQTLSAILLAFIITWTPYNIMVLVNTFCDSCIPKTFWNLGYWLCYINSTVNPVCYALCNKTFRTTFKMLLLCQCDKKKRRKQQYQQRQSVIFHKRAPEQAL
The test is described as follows: hM3 β-Lac potency assay (cell based β-lactamase). Conditions: CHO cells expressing human M3 receptor, NFAT β-lactamase reporter; […]; IC50 converted to Ki by Cheng-Prusoff; read-out: Cell based β-lactamase M3 Ki. The procedure:
M3 potency was determined in CHO-K1 cells transfected with the NFAT-Betalactamase gene. CHO (Chinese Hamster Ovary) cells recombinantly expressing the human muscarinic M3 receptor were transfected with the NFAT_β-Lac_Zeo plasmid.
The cells were re-suspended at 2×10^5 cells/ml in growth medium (composition as described above). […] Inhibition curves were plotted and IC50 values generated using a 4-parameter sigmoid fit and converted to Ki values using the Cheng-Prusoff correction and the KD value for carbamyl choline in the assay.
As for `CC(C)(CCC(C#N)(c1ccccc1)c1ccccc1)N1CCC(OCc2cccc(O)c2)CC1` [Example 88, 5-{4-[(3-Hydroxybenzyl)oxy]piperidin-1-yl}-5-methyl-2,2-diphenylhexanenitrile], the Ki is 71.9 nM.

Regarding `COc1cccc(OC2CN(C(C)(C)CCC(C#N)(c3ccccc3)c3ccccc3)C2)c1` [Example 99, 5-[3-(3-Methoxyphenoxy)azetidin-1-yl]-5-methyl-2,2-diphenylhexanenitrile], the inhibition constant (Ki) was found to be 65.7 nM.

Staying with this test, now noted: CHO cells expressing human M3 receptor, NFAT β-lactamase reporter; inhibition of 80 nM carbamyl choline signal, 4 h; IC50 converted to Ki by Cheng-Prusoff; read-out: Cell based β-lactamase M3 Ki.
On to `COc1ccc(C#N)c(O[C@H]2CCN(C(C)(C)CCC(C(N)=O)(c3ccccc3)c3ccccc3)C2)c1` [Example 69, 5-[(3S)-3-(2-Cyano-5-methoxy-phenoxy)-pyrrolidin-1-yl]-5-methyl-2,2-diphenylhexanamide], for which the Ki was found to be 111 nM.

Consider `CC(C)(CCC(C(N)=O)(c1ccccc1)c1ccccc1)N1CC[C@H](Oc2ccc3ccc(O)cc3c2)C1` [Example 70, 5-[(3S)-3-[(7-Hydroxy-2-naphthyl)oxy]pyrrolidin-1-yl]-5-methyl-2,2-diphenylhexanamide], for which the Ki came out at 19.1 nM. `CC(C)(CCC(C(N)=O)(c1ccccc1)c1ccccc1)N1CC[C@H](Oc2ccc(-c3ccccc3)cc2)C1` [Example 71, 5-[(3S)-3-(4-Phenylphenoxy)pyrrolidin-1-yl]-5-methyl-2,2-diphenylhexanamide]: the Ki came to 113 nM. On the same count and under the same terms, with `CC(C)(CCC(C(N)=O)(c1ccccc1)c1ccccc1)N1CC[C@@H](Oc2ccc(O)c(Cl)c2)C1` [Example 72, 5-[(3R)-3-(3-chloro-4-hydroxyphenoxy)pyrrolidin-1-yl]-5-methyl-2,2-diphenylhexanamide] the figure was 1.23 nM.

Consider `COc1cc(F)cc(O[C@@H]2CCN(C(C)(C)CCC(C(N)=O)(c3ccccc3)c3ccccc3)C2)c1` [Example 73, 5-[(3R)-3-(3-Fluoro-5-methoxy-phenoxy)-pyrrolidin-1-yl]-5-methyl-2,2-diphenylhexanamide], for which the Ki came out at 0.852 nM.

In the case of `CC(C)(CCC(C(N)=O)(c1ccccc1)c1ccccc1)N1CC[C@@H](Oc2cc(O)cc(F)c2)C1` [Example 74, 5-[(3R)-3-(3-Fluoro-5-hydroxy-phenoxy)-pyrrolidin-1-yl]-5-methyl-2,2-diphenyl-hexanamide], the Ki was less than 0.56 nM.

Consider `CC(C)(CCC(C(N)=O)(c1ccccc1)c1ccccc1)N1CC[C@@H](Oc2cccc(O)c2F)C1` [Example 76, 5-[(3R)-3-(2-Fluoro-3-hydroxy-phenoxy)-pyrrolidin-1-yl]-5-methyl-2,2-diphenylhexanamide], for which the Ki is 0.582 nM. Regarding `COc1cccc(O[C@@H]2CCN(C(C)(C)CCC(C(N)=O)(c3ccccc3)c3ccccc3)C2)c1Cl` [Example 77, 5-[(3R)-3-(2-Chloro-3-methoxy-phenoxy)-pyrrolidin-1-yl]-5-methyl-2,2-diphenylhexanamide], the Ki is 4.96 nM. For the molecule `CC(C)(CCC(C(N)=O)(c1ccccc1)c1ccccc1)N1CC[C@@H](Oc2cccc(O)c2Cl)C1` [Example 78, 5-[(3R)-3-(2-Chloro-3-hydroxy-phenoxy)-pyrrolidin-1-yl]-5-methyl-2,2-diphenylhexanamide], the Ki turned out to be 0.917 nM. As to `CC(C)(CCC(C(N)=O)(c1ccccc1)c1ccccc1)N1CC[C@@H](OCc2ccc(Cl)c(O)c2)C1` [Example 79, 5-[(3R)-3-(4-Chloro-3-hydroxy-benzyloxy)-pyrrolidin-1-yl]-5-methyl-2,2-diphenyl hexanamide], the Ki was 16.2 nM. For the molecule `COc1cc(O[C@@H]2CCN(C(C)(C)CCC(C(N)=O)(c3ccccc3)c3ccccc3)C2)ccc1Cl` [Example 81, 5-[(3R)-3-(3-methoxy-4-chloro-Phenoxy)-pyrrolidin-1-yl]-5-methyl-2,2-diphenylhexanamide], the inhibition constant (Ki) came out at 35.4 nM. Same read-out and setting: with `CC(C)(CCC(C(N)=O)(c1ccccc1)c1ccccc1)N1CC[C@@H](Oc2ccc(Cl)c(O)c2)C1` [Example 82, 5-[(3R)-3-(3-hydroxy-4-chloro-phenoxy)-pyrrolidin-1-yl]-5-methyl-2,2-diphenylhexanamide] the figure was 7.96 nM. In the case of `CC(C)(CCC(C(N)=O)(c1ccccc1)c1ccccc1)N1CC[C@@H](Oc2ccc(C#N)c(O)c2)C1` [Example 83, 5-[(3R)-3-(3-hydroxy-4-cyano-phenoxy)-pyrrolidin-1-yl]-5-methyl-2,2-diphenylhexanamide], the Ki came to 30 nM. Regarding `COc1cccc(CO[C@H]2CCN(C(C)(C)CCC(C(N)=O)(c3ccccc3)c3ccccc3)C2)c1` [Example 84, 5-[(3S)-3-(3-methoxy-benzyloxy)pyrrolidin-1-yl]-5-methyl-2,2-diphenylhexanamide], the inhibitory constant (Ki) came to 6.97 nM. As to `CC(C)(CCC(C(N)=O)(c1ccccc1)c1ccccc1)N1CC[C@@H](OCc2cccc(O)c2Cl)C1` [Example 85, 5-[(3R)-3-(2-Chloro-3-hydroxy-benzyloxy)-pyrrolidin-1-yl]-5-methyl-2,2-diphenylhexanamide], the Ki was determined as 3.19 nM. As to `CC(C)(CCC(C#N)(c1ccccc1)c1ccccc1)N1CCC(Oc2ccccc2)CC1` [Example 86, 5-Methyl-5-(4-phenoxypiperidin-1-yl)-2,2-diphenylhexanenitrile], the Ki came out at 1.26 nM. `CC(C)(CCC(C#N)(c1ccccc1)c1ccccc1)N1CCC(OCc2ccccc2)CC1` [Example 89, 5-[4-(Benzyloxy)piperidin-1-yl]-5-methyl-2,2-diphenylhexanenitrile]: the Ki worked out at 159 nM. For the molecule `CC(C)(CCC(C(N)=O)(c1ccccc1)c1ccccc1)N1CCC(Oc2ccccc2)CC1` [Example 90, 5-Methyl-5-(4-Phenoxypiperidin-1-yl)-2,2-diphenylhexanamide], the Ki was determined as 0.268 nM. As for `CC(C)(CCC(C(N)=O)(c1ccccc1)c1ccccc1)N1CCC(OCc2cccc(Br)c2)CC1` [Example 91, 5-{4-[(3-Bromobenzyl)oxy]piperidin-1-yl}-5-methyl-2,2-diphenylhexanamide], the Ki was determined as 22.6 nM. With `CC(C)(CCC(C(N)=O)(c1ccccc1)c1ccccc1)N1CCC(OCc2ccccc2)CC1` [Example 92, 5-[4-(Benzyloxy)piperidin-1-yl]-5-methyl-2,2-diphenylhexanamide], the Ki was determined as 2.13 nM. Take `CC(C)(CCC(C(N)=O)(c1ccccc1)c1ccccc1)N1CCC(Oc2cc(O)c(Cl)cc2Cl)CC1` [Example 93, 5-[4-(2,4-Dichloro-5-hydroxy-phenoxy)-piperidin-1-yl]-5-methyl-2,2-diphenylhexanoic acid amide]: the Ki was 26.8 nM. Consider `CC(C)(CCC(C(N)=O)(c1ccccc1)c1ccccc1)N1CCC(Oc2cc(F)c(C#N)cc2F)CC1` [Example 94, 5-[4-(4-Cyano-2,5-difluoro-phenoxy)-piperidin-1-yl]-5-methyl-2,2-diphenylhexanoic acid amide], for which the Ki turned out to be 12.4 nM. Take `Cc1c(O)cccc1OC1CCN(C(C)(C)CCC(C(N)=O)(c2ccccc2)c2ccccc2)CC1` [Example 96, 5-[4-(3-hydroxy-2-methylphenoxy)piperidin-1-yl]-5-methyl-2,2-diphenylhexanamide]: the Ki stood at 6.51 nM.

Turning to `CC(C)(CCC(C(N)=O)(c1ccccc1)c1ccccc1)N1CCC(OCc2cccc(-c3cccc(O)c3)c2)CC1` [Example 98, 5-{4-[(3′-hydroxybiphenyl-3-yl)methoxy]piperidin-1-yl}-5-methyl-2,2-diphenylhexanamide], the Ki was 139 nM.

Turning to `COc1cccc(OC2CN(C(C)(C)CCC(C(N)=O)(c3ccccc3)c3ccccc3)C2)c1` [Example 100, 5-[3-(3-Methoxyphenoxy)azetidin-1-yl]-5-methyl-2,2-diphenylhexanamide], the Ki turned out to be 0.43 nM.
